The values below are quoted from earlier work in patent US11789016B2, “Methods, systems and kits for in-pen assays” (Berkeley Lights, Inc., priority 2017, dated 2023).

Where two headings read alike, the source gives them in different places.

In this data set the target is IgG. As to conditions: for Kd: read-out: Affinity for IgG.

In the case of “5′-rGp-rGp-rAp-rGp-rGp-fUp-rGp-fCp-fUp-fCp-fCp-rGp-rAp-rAp-rAp-rGp-rGp-rAp-rAp-fCp-fUp-fCp-fCp-3′ [CPD 5]”, the Kd (Fc of hIgG) was 75 nM.

As to “CPD 1: Protein A-AF594, Pierce Recombinant Protein A (ThermoFisher Cat. # 77674)”, the “Affinity for IgG” value (order of magnitude in words) was “nanomolar”.

For “DCAWHLGELVWCT [CPD 4, Asp Cys Ala Trp His Leu Gly Glu Leu Val Trp Cys Thr]”, the Kd (Fc) is 100 nM.
